The fraction unbound is the share of the substance not bound to proteins or other matrix. A word on the IC50: it is the concentration that inhibits the measured activity by half. The term Km denotes the concentration of substrate that gives half-maximal velocity. One may read the Cmax as the peak of the concentration-time curve. The Ki is a dissociation constant, usually derived from enzyme kinetics or from competition with a known ligand. Lower therefore signals higher affinity.

Each structure is given as a SMILES string. Where two headings read alike, the source gives them in different places.

Data set [1] can be described thus: Protein binding assay (equilibrium dialysis). The class given is in vitro ADME, rat. In short, it runs like this:
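Rat plasma binding was measured by equilibrium dialysis (12–14 kDa cutoff membrane), equilibrated 24 h at 37 °C and 55 rpm. Alkaloids were tested at 2 μmol/L and saponins at 4 μmol/L. Unbound fraction = dialysate concentration/post-dialysis plasma concentration × 100%.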

The target of a further data set is T1, UGT1A9 (Homo sapiens, UniProt O60656).
T1 sequence (O60656 26-530): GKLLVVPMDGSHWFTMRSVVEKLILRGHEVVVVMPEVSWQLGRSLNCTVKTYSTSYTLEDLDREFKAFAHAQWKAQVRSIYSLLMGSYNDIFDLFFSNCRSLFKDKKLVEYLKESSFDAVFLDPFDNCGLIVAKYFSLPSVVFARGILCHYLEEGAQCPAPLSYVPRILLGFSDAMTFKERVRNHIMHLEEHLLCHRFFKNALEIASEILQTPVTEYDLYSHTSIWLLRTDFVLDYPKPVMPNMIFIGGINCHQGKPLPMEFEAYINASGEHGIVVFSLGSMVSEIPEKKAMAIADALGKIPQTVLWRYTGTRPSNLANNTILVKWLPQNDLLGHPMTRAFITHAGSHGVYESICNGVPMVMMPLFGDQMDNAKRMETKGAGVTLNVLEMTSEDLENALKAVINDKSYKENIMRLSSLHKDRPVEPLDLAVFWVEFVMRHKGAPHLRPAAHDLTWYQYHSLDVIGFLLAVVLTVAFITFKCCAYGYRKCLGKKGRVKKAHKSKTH
Description: Inhibition of expressed UGT1A9 (probe propofol). The class given is in vitro ADME. The procedure:
(§1) After centrifugation (13,800g, 10 min), the supernatant (8 μL) was obtained for determination by UHPLC system.
(§2) Similarly, β-estradiol (60 μM), propofol (40 μM) and 4-MU (350 μM) were typically used as the substrates for UGT1A1, 1A9 and 2B7, respectively. After optimization of incubation conditions (Additional file 1: Fig. S2), the protein concentrations for UGT1A1, 1A9, and 2B7 were 0.125, 0.05, and 0.05 mg/mL, respectively.

A further data set relates to P-gp. Details: method as in PMID 24380838. The following applies: cited from earlier work; for inhibition of P-gp: in vitro and in vivo.
For another data set, the system named is CYP and UGT enzymes. Briefly: Inhibition of the panel of eight CYP and three UGT isozymes (statements over all enzymes). The following applies: compound 100 μM. The data set is classed as in vitro ADME, human. The procedure: as §1
In this study, phenacetin (100 μM), coumarin (100 μM), bupropion (100 μM), paclitaxel (60 μM), tolbutamide (200 μM), mephenytoin (100 μM), chlorzoxazone (200 μM) and nifedipine (40 μM) have been used as the probe substrates for CYP1A2, 2A6, 2B6, 2C8, 2C9, 2C19, 2E1 and 3A4, respectively.
as §2

For another data set, the system named is CYP3A4. Further details: method as in PMID 26586934. The following applies: CYP3A4 isozyme; read-out: Km (metabolism to matrine); cited from earlier work.
On the set-up of data set [2]: method as in PMID 16500065. The conditions noted are these: intravenous infusion of 600 mg oxymatrine, healthy male volunteers; cited from earlier work.
Details of data set [3]: method as in PMID 26586934. The conditions noted are these: HIM; read-out: Km (metabolism to matrine); cited from earlier work.
For data set [4], the system named is HepG2, MCF-7, HeLa, A549 cells. Details: method as in PMID 31283981. The conditions noted are these: cited from earlier work.
Data set [5] concerns SW-620, BGC823, A375 cells. Details: method as in PMID 31283981. The conditions noted are these: cited from earlier work.
Details of data set [6]: method as in earlier work. The conditions noted are these: rat plasma; oxymatrine 30 mg/kg intravenously; cited from earlier work.
Details of data set [7]: method as in PMID 26586934. The conditions noted are these: pooled HLM; read-out: Km (metabolism to matrine); cited from earlier work.
A further data set concerns NTCP. Further details: method as in PMID 30978651. The conditions noted are these: cited from earlier work.
Setting [8] is: rat plasma, equilibrium dialysis 24 h, 37 °C, 2 μmol/L alkaloids, 4 μmol/L saponins, read-out: fu-plasma (unbound fraction).
The mark [9] stands for this setting: recombinant isozyme, mean ± SD of triplicate, unit not given (IC50 classes in μM), read-out: IC50 towards UGT1A9.

On to `CC(C)=CCC[C@](C)(O[C@@H]1O[C@H](CO)[C@@H](O)[C@H](O)[C@H]1O)[C@H]1CC[C@]2(C)[C@@H]1[C@H](O)C[C@@H]1[C@@]3(C)CC[C@H](O)C(C)(C)[C@@H]3[C@@H](O[C@@H]3O[C@H](CO)[C@@H](O)[C@H](O)[C@H]3O[C@@H]3O[C@@H](C)[C@H](O)[C@@H](O)[C@H]3O)C[C@]12C` [Compound C9, Ginsenoside Re], for which the free fraction (fraction unbound) at 24 h in data set [1] (setting [8]) turned out to be 0.874 ± 0.0659. Further, the IC50 on UGT1A9 (setting [9]) is above 100 µM.

Take `O=C1CCC[C@@H]2[C@H]3CCCN4CCC[C@@H](CN12)[C@@H]34` [Compound A1, Matrine]: the fraction unbound at 24 h in data set [1] (setting [8]) turned out to be 0.927 ± 0.0681. Besides, the half-maximal inhibitory concentration (IC50) at UGT1A9 is above 100 µM. In addition, the “inhibition of P-gp” value with P-gp was “did not demonstrate the inhibition of P-gp”.

With `CC(C)=CCC[C@](C)(O[C@@H]1O[C@H](CO[C@@H]2O[C@H](CO)[C@@H](O)[C@H](O)[C@H]2O)[C@@H](O)[C@H](O)[C@H]1O)[C@H]1CC[C@]2(C)[C@@H]1[C@H](O)C[C@@H]1[C@@]3(C)CC[C@H](O[C@@H]4O[C@H](CO)[C@@H](O)[C@H](O)[C@H]4O[C@@H]4O[C@H](CO)[C@@H](O)[C@H](O)[C@H]4O)C(C)(C)[C@@H]3CC[C@]12C` [Compound D5, Ginsenoside Rb1], the fraction unbound at 24 h in data set [1] (setting [8]) came to 0.0096 ± 0.0009. The IC50 on UGT1A9 (setting [9]) was above 100 µM.

Take `CC(C)=CCC[C@](C)(O)[C@H]1CC[C@]2(C)[C@@H]1[C@H](O)C[C@@H]1[C@@]3(C)CC[C@H](O)C(C)(C)[C@@H]3[C@@H](O[C@@H]3O[C@H](CO)[C@@H](O)[C@H](O)[C@H]3O[C@@H]3O[C@H](CO)[C@@H](O)[C@H](O)[C@H]3O)C[C@]12C` [Compound C7, Ginsenoside Rf]: the “changes against these CYP and UGT enzymes” value in the data set with CYP and UGT enzymes is on record as “almost no changes”. The compound further yielded a fraction unbound at 24 h in [1] (rat, plasma) of 0.602 ± 0.0701. On UGT1A9 (setting [9]), the half-inhibitory concentration (IC50) was above 100 µM.

`O=C1CCC[C@@H]2[C@H]3CCC[N+]4([O-])CCC[C@@H](CN12)[C@@H]34` (some centres unmarked) [Compound A3, Oxymatrine]: the Km in the data set with CYP3A4 is 341 µM. Besides, the “fraction of oxymatrine reduced to matrine” value in [2] is on record as “about 19.9%”. In addition, in data set [3], the Michaelis-Menten constant (Km) was 150 µM. In data set [1] (rat, plasma), the fraction unbound at 24 h was 0.932 ± 0.0652. In data set [4], the “reported effective concentrations (IC50 or EC50 values)” value was 473.48 to 3787.84 µM. Further, in [5], the “effective concentrations to inhibit tumor cell viability” value was 0.10 to 40.00 µmol/L. Moreover, the IC50 at UGT1A9 (IC50 towards UGT1A9, recombinant isozyme, mean ± SD of triplicate, unit not given (IC50 classes in μM)) was above 100 µM. In [6], the “AUC0–12h” value was 16234.27 ng·h/mL, the CL was 3.10 L/h, the Cmax is 32847.57 ng/mL and the t1/2 is 34.2 min. Also, the Michaelis-Menten constant (Km) in [7] is 221 µM. For the same compound, the “inhibition of P-gp” value in the data set with P-gp is recorded as “did not demonstrate the inhibition of P-gp”.

Turning to `CC(C)=CCC[C@](C)(O[C@@H]1O[C@H](CO)[C@@H](O)[C@H](O)[C@H]1O)[C@H]1CC[C@]2(C)[C@@H]1[C@H](O)C[C@@H]1[C@@]3(C)CC[C@H](O[C@@H]4O[C@H](CO)[C@@H](O)[C@H](O)[C@H]4O[C@@H]4O[C@H](CO)[C@@H](O)[C@H](O)[C@H]4O)C(C)(C)[C@@H]3CC[C@]12C` [Compound D2, Ginsenoside Rd], the fraction unbound at 24 h in data set [1] (setting [8]) is 0.0075 ± 0.0008. Moreover, at UGT1A9 (setting [9]), the IC50 is above 100 µM.

Consider `CC(C)=CCC[C@](C)(O[C@@H]1O[C@H](CO[C@@H]2O[C@@H](CO)[C@H](O)[C@H]2O)[C@@H](O)[C@H](O)[C@H]1O)[C@H]1CC[C@]2(C)[C@@H]1[C@H](O)C[C@@H]1[C@@]3(C)CC[C@H](O[C@@H]4O[C@H](CO)[C@@H](O)[C@H](O)[C@H]4O[C@@H]4O[C@H](CO)[C@@H](O)[C@H](O)[C@H]4O)C(C)(C)[C@@H]3CC[C@]12C` [Compound D3, Ginsenoside Rc], for which the unbound share (fraction unbound) at 24 h in data set [1] (setting [8]) is 0.0112 ± 0.0012. Moreover, the “inhibition type (smallest AIC and SC)” value on UGT1A9 (UGT1A9) is “Noncompetitive inhibition”. The inhibition constant Ki at UGT1A9 (UGT1A9, competitive model) was found to be 8.9 ± 1.5 µM; at UGT1A9 (UGT1A9, mixed-type model), 27 ± 7.5 µM; at UGT1A9 (UGT1A9, noncompetitive model), 22.3 ± 1.4 µM. Moreover, on UGT1A9 (UGT1A9, mixed-type model), the α was found to be 0.7 ± 0.3. The “Cmax/Ki ([I]/Ki)” value at UGT1A9 (UGT1A9, selected model, rat plasma Cmax) is 0.04. Besides, the IC50 on UGT1A9 (propofol 40 μM, read-out: IC50 against UGT1A9) turned out to be 29 µM; on UGT1A9 (setting [9]), 29 ± 12.7 µM.

On to `CC(C)(O)[C@@H]1CC[C@](C)([C@H]2[C@@H](O)C[C@@]3(C)[C@@H]4C[C@H](O[C@@H]5O[C@H](CO)[C@@H](O)[C@H](O)[C@H]5O)[C@H]5C(C)(C)[C@@H](O[C@@H]6OC[C@@H](O)[C@H](O)[C@H]6O)CC[C@@]56C[C@@]46CC[C@]23C)O1` [Compound B2, Astragaloside IV], for which the “bound in rat plasma” value in data set [1] (rat plasma, equilibrium dialysis) is on record as around 90%. Moreover, in data set [1] (rat plasma, equilibrium dialysis 24 h, 37 °C, 2 μmol/L alkaloids, 4 μmol/L saponins), the “fu-plasma (unbound fraction)” value was determined as 12.35 ± 1.02%. Besides, the IC50 on UGT1A9 (setting [9]) was above 100 µM. Moreover, the inhibition activity in the data set with P-gp (MDR1-MDCKII cells, 100 μM) was 8.22%.

As to `CC(C)=CCC[C@](C)(O[C@@H]1O[C@H](CO)[C@@H](O)[C@H](O)[C@H]1O)[C@H]1CC[C@]2(C)[C@@H]1[C@H](O)C[C@@H]1[C@@]3(C)CC[C@H](O)C(C)(C)[C@@H]3[C@@H](O[C@@H]3O[C@H](CO)[C@@H](O)[C@H](O)[C@H]3O)C[C@]12C` [Compound C6, Ginsenoside Rg1], the half-maximal inhibitory concentration (IC50) with NTCP is 50.5 µM; on UGT1A9 (setting [9]) it was above 100 µM. Besides, the fraction unbound at 24 h in data set [1] (setting [8]) was 0.863 ± 0.0732.
